Drawing on patent publication US9233961B2, “Compounds and compositions for the treatment of parasitic diseases” (Novartis AG, priority 2013, dated 2016), this text covers EC50 for 47 compounds.

SMILES strings stand for the structures. Where two headings read alike, the source gives them in different places.

Assay [1] concerns Leishmania donovani axenic amastigote parasites. The experiment in a line: Leishmania donovani axenic amastigote proliferation assay. The format is cell-based. The settings on record: read-out: L. donovani amastigotes EC50. In outline:
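EC50 values come from CellTiter-Glo luminescence after 2-day compound exposure of axenic amastigotes (9600 per well) at 37 °C, 5% CO2. Medium: RPMI 1640, 20% heat-inactivated FBS, folic acid, adenosine, D-glucose, 25 mM MES, adjusted to pH 5.5.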

Assay [2] relates to L. donovani HU3 strain in mouse peritoneal macrophages. The experiment in a line: Assay for proliferation of Leishmania parasites in mouse peritoneal macrophages. The format is cell-based, Leishmania donovani. The conditions noted are these: Leishmania donovani, Peritoneal macrophage. In outline: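 EC50 derives from counting SYBR Green-stained parasite nuclei by high-content imaging after 5 days' compound exposure. Host cells were uninfected BALB/c peritoneal macrophages, infected for 24 h before dosing with spleen-derived L. donovani HU3 parasites from mice infected 9–11 weeks.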

[3] abbreviates: read-out: L. donavani Macrophage EC50.
[4] abbreviates: read-out: L. donavani Macrophage EC50 (μM).

Take `CC(C)OC(=O)Nc1ccc(Cl)c(-c2nc3ncc(-c4ccc(NC(=O)CCN)cc4)cc3[nH]2)c1` [Compound 339]: the figures for the 50% effective concentration (EC50) in assay [1] (axenic amastigotes in vitro) and in assay [2] (setting [3]) were 3.7 µM and 1.82 µM, respectively.
For the compound `Cc1ncoc1C(=O)Nc1ccc(F)c(-c2nc3ncc(Br)cc3o2)c1` [Compound 409], the concentration for a half-maximal effect (EC50) (in general, the concentration that produces a half-maximal response) in assay [1] (axenic amastigotes in vitro) is 7.5 µM; in assay [2] (setting [3]) it was greater than 50 µM.
In the case of `CN1CCN(c2ccc(-c3cnc4nc(-c5cc(NC(=O)c6ccco6)ccc5Cl)[nH]c4c3)cc2)CC1` [Compound 22], the results for the EC50 in assay [1] (axenic amastigotes in vitro) and in assay [2] (setting [3]) were 19 µM and 4.6 µM, respectively.
Regarding `Cc1cnc2nc(-c3cc(NC(=O)c4c(C)noc4C)ccc3Cl)[nH]c2c1` [Compound 105], the EC50 was greater than 25 µM in assay [1] (axenic amastigotes in vitro) and greater than 50 µM in assay [2] (setting [3]).
For the compound `CC(=O)Nc1ccc(-c2cnc3nc(-c4cc(NC(=O)Nc5ccc(C(F)(F)F)cc5)ccc4F)oc3c2)cc1` [Compound 401], the concentration giving a half-maximal response (EC50) in assay [1] (axenic amastigotes in vitro) was determined as 4.7 µM; in assay [2] (setting [3]), 3.12 µM.
Consider `O=C(Nc1ccc(Cl)c(-c2nc3ncc(-c4c[nH]cn4)cc3[nH]2)c1)N1CCCC1` [Compound 307], for which the 50% effective concentration (EC50) in assay [1] (axenic amastigotes in vitro) was greater than 25 µM; in assay [2] (setting [3]) it was greater than 50 µM.
For `COCn1c(-c2cc(NC(=O)N3CCCC3)ccc2Cl)nc2ncc(Br)cc21` [Example 386], the EC50 in assay [1] (axenic amastigotes in vitro) and in assay [2] (setting [3]) was 4.3 µM each time.
`Cc1cnc2nc(-c3cc(NC(=O)c4ccnc([S+](C)[O-])n4)ccc3Cl)[nH]c2c1` (stereo not shown) [Compound 154]: the EC50 in assay [1] (axenic amastigotes in vitro) was greater than 24.1 µM; in assay [2] (setting [3]), greater than 50 µM.
With `Cc1ccc(C(=O)Nc2ccc(F)c(-c3nc4ncc(-c5ccccc5)cc4[nH]3)c2)o1` [Example 380, N-(4-fluoro-3-{6-phenyl-1H-imidazo[4,5-b]pyridin-2-yl}phenyl)-5-methylfuran-2-carboxamide], the values for the EC50 in assay [1] (axenic amastigotes in vitro) and in assay [2] (setting [3]) were 5.7 µM and 3.3 µM, respectively.
For `Nc1ccc(-c2cnc3nc(-c4cc(NC(=O)c5ccco5)ccc4Cl)[nH]c3c2)cc1` [Compound 12], the concentration giving a half-maximal response (EC50) in assay [1] (axenic amastigotes in vitro) was 0.258 µM; in assay [2] (setting [3]), 0.4 µM.
As to `COc1ncc(-c2cnc3nc(-c4cc(NC(=O)c5ccco5)ccc4Cl)[nH]c3c2)cn1` [Compound 9], the EC50 in assay [1] (axenic amastigotes in vitro) was found to be 0.45 µM; in assay [2] (setting [3]), 1.2 µM.
Regarding `CN1CCN(CCOc2ccc(-c3cnc4nc(-c5cc(NC(=O)N6CCCC6)ccc5F)[nH]c4c3)cc2)CC1` [Compound 311], the results for the EC50 in assay [1] (axenic amastigotes in vitro) and in assay [2] (setting [3]) were greater than 25 µM and greater than 6.9 µM, respectively.
Regarding `O=C(Nc1ccc(C(F)(F)F)cc1)Nc1ccc(F)c(-c2nc3ncc(Cl)cc3[nH]2)c1` [Compound 356], the EC50 in assay [1] (axenic amastigotes in vitro) was greater than 25 µM; in assay [2] (setting [3]), 19.6 µM.
For `COC(=O)c1ccc(-c2cnc3nc(-c4cc(NC(=O)c5ccco5)ccc4Cl)[nH]c3c2)cc1` [Compound 35], the concentration for a half-maximal effect (EC50) in assay [1] (axenic amastigotes in vitro) was found to be 0.234 µM; in assay [2] (setting [3]), 2.11 µM.
With `O=C(Nc1ccc(C(F)(F)F)cc1)Nc1ccc(F)c(-c2nc3ncc(N4CCCCC4)cc3o2)c1` [Compound 397], the EC50 is greater than 25 µM in assay [1] (axenic amastigotes in vitro) and greater than 30 µM in assay [2] (setting [3]).
Regarding `Cc1cc(COc2ccc(-c3cnc4nc(-c5cc(NC(=O)c6ccco6)ccc5Cl)[nH]c4c3)cc2)no1` [Compound 44], the concentration for a half-maximal effect (EC50) is 0.283 µM in assay [1] (axenic amastigotes in vitro) and 0.82 µM in assay [2] (setting [3]).
The corresponding values for `Nc1ccccc1-c1cnc2nc(-c3cc(NC(=O)c4ccco4)ccc3Cl)[nH]c2c1` [Compound 23] are 0.32 µM and 0.37 µM.
With `CC(C)N(C(=O)Nc1ccc(F)c(-c2nc3ncc(Br)cc3[nH]2)c1)C(C)C` [Compound 362], the EC50 in assay [1] (axenic amastigotes in vitro) was greater than 25 µM; in assay [2] (setting [3]), 7.5 µM.
As for `Cc1cnc2nc(-c3cc(NC(=O)C(O)c4ccc(C(F)(F)F)cc4)ccc3Cl)[nH]c2c1` (stereo not shown) [Compound 182], the EC50 in assay [1] (axenic amastigotes in vitro) was greater than 25 µM; in assay [2] (setting [3]), greater than 50 µM.
On to `COC(=O)Nc1ccc(-c2cnc3nc(-c4cc(NC(=O)N5CCCC5)ccc4Cl)[nH]c3c2)cc1` [Compound 296], for which the values for the EC50 in assay [1] (axenic amastigotes in vitro) and in assay [2] (setting [3]) were 0.034 µM and 0.126 µM, respectively.
Turning to `CCc1noc(C(=O)Nc2ccc(F)c(-c3nc4ncc(Br)cc4o3)c2)n1` [Compound 405], the values for the EC50 in assay [1] (axenic amastigotes in vitro) and in assay [2] (setting [3]) were greater than 25 µM and greater than 50 µM, respectively.
As for `O=C(Nc1ccc(Cl)c(-c2nc3ncc(Cl)cc3[nH]2)c1)c1ccco1` [Compound 2], the EC50 turned out to be 1.39 µM in assay [1] (axenic amastigotes in vitro) and 4 µM in assay [2] (setting [3]).
Regarding `O=C(Nc1ccc(C(F)(F)F)cc1)Nc1ccc(F)c(-c2nc3ncc(-c4ccc(CN5CCOCC5)cc4)cc3o2)c1` [Compound 395], the concentration giving a half-maximal response (EC50) in assay [1] (axenic amastigotes in vitro) came to 12 µM; in assay [2] (setting [3]) it was 6.8 µM.
With `CSc1nccc(C(=O)Nc2ccc(Cl)c(-c3nc4ncc(C)cc4[nH]3)c2)n1` [Compound 137], the EC50 was greater than 25 µM in assay [1] (axenic amastigotes in vitro) and 15.9 µM in assay [2] (setting [3]).
On to `O=C(Nc1ccc(Cl)c(-c2nc3ncc(C(F)(F)F)cc3[nH]2)c1)c1ccccc1Cl` [Compound 278], for which the EC50 in assay [1] (axenic amastigotes in vitro) is greater than 25 µM; in assay [2] (setting [3]), 3.8 µM.
Consider `CC(=O)Nc1ccc(F)c(-c2nc3ncc(C)cc3[nH]2)c1` [Compound 272], for which the 50% effective concentration (EC50) in assay [1] (axenic amastigotes in vitro) is greater than 25 µM; in assay [2] (setting [3]) it was greater than 50 µM.
On to `Cc1ccnc2nc(-c3cc(NC(=O)c4ccco4)ccc3Cl)[nH]c12` [Compound 3], for which the EC50 in assay [1] (axenic amastigotes in vitro) was greater than 25 µM; in assay [2] (setting [3]), greater than 50 µM.
For `CN(C)Cc1ccc(C(=O)Nc2ccc(Cl)c(-c3nc4ncc(C(F)(F)F)cc4[nH]3)c2)o1` [Compound 277], the half-maximal effective concentration (EC50) in assay [1] (axenic amastigotes in vitro) is greater than 25 µM; in assay [2] (setting [3]) it was 15.2 µM.
For `O=C(Nc1ccc(Cl)c(-c2nc3ncc(-c4ccc(OCCN5CCOCC5)cc4)cc3[nH]2)c1)N1CCCC1` [Compound 299], the 50% effective concentration (EC50) in assay [1] (axenic amastigotes in vitro) turned out to be 0.73 µM; in assay [2] (setting [3]), 0.208 µM.
On to `[2H]C([2H])([2H])C([2H])([2H])OC(=O)Nc1ccc(Cl)c(-c2nc3ncc(C)cc3[nH]2)c1` [Compound 215], for which the EC50 was found to be 13.3 µM in assay [1] (axenic amastigotes in vitro) and 18.1 µM in assay [2] (setting [3]).
As to `O=C(Nc1ccc(-c2cnc3nc(-c4cc(NC(=O)c5ccco5)ccc4Cl)[nH]c3c2)cc1)NC1CC1` [Compound 45], the EC50 in assay [1] (axenic amastigotes in vitro) was 1.47 µM; in assay [2] (setting [3]), 3.4 µM.
With `COC(=O)Nc1ccc(-c2cnc3nc(-c4cc(NC(=O)N5CCC(F)(F)C5)ccc4Cl)[nH]c3c2)cc1` [Example 343, Methyl N-[4-(2-{2-chloro-5-[(3,3-difluoropyrrolidin-1-yl)carbonylamino]phenyl}-1H-imidazo [4,5-b]pyridin-6-yl)phenyl]carbamate], the figures for the concentration giving a half-maximal response (EC50) in assay [1] and in assay [2] (setting [3]) were 0.245 µM and 0.51 µM, respectively.
As for `Cc1c[nH]nc1-c1cnc2nc(-c3cc(NC(=O)c4ccco4)ccc3Cl)[nH]c2c1` [Compound 73], the values for the EC50 in assay [1] (axenic amastigotes in vitro) and in assay [2] (setting [3]) were 0.82 µM and 8.2 µM, respectively.
For `CN(C)c1ccc(-c2cnc3nc(-c4cc(NC(=O)Nc5ccc(C(F)(F)F)cc5)ccc4F)oc3c2)cn1` [Compound 403], the concentration giving a half-maximal response (EC50) in assay [1] (axenic amastigotes in vitro) was 17.4 µM; in assay [2] (setting [3]), greater than 50 µM.
As for `O=C(Nc1ccc(F)c(-c2nc3ncc(-c4ccc(OCC5CO5)cc4)cc3[nH]2)c1)N1CCCC1` (stereo not shown) [Compound 310], the 50% effective concentration (EC50) in assay [1] (axenic amastigotes in vitro) is 1.95 µM; in assay [2] (setting [3]) it was 4.6 µM.
Taken in the same sequence, the figures for `O=C(Nc1ccc(Cl)c(-c2nc3ncc(-c4ccc(F)cc4)cc3[nH]2)c1)N1CCCC1` [Compound 293] were 0.38 µM and 2.47 µM.
As for `CNC(=O)Nc1ccc(-c2cnc3nc(-c4cc(NC(=O)c5ccco5)ccc4Cl)[nH]c3c2)cc1` [Compound 57], the EC50 was 1.83 µM in assay [1] (axenic amastigotes in vitro) and greater than 50 µM in assay [2] (setting [3]).
For the compound `O=C(Nc1ccc(Cl)c(-c2nc3ncc(-c4cnn(CCN5CCOCC5)c4)cc3[nH]2)c1)c1ccco1` [Compound 14], the half-maximal effective concentration (EC50) in assay [1] (axenic amastigotes in vitro) was 3.7 µM; in assay [2] (setting [3]), 3.14 µM.
In the case of `Cc1cnc2nc(-c3cc(NC(=O)c4ccco4)ccc3Cl)oc2c1` [Example 418, N-(4-chloro-3-{6-methyl-[1,3]oxazolo[4,5-b]pyridin-2-yl}phenyl)-furan-2-carboxamide], the EC50 in assay [1] (axenic amastigotes in vitro) turned out to be 1.51 µM; in assay [2] (setting [4]), 8.4 µM.
On to `CC(=O)Nc1ccccc1-c1cnc2nc(-c3cc(NC(=O)c4ccco4)ccc3Cl)[nH]c2c1` [Compound 8], for which the figures for the EC50 in assay [1] (axenic amastigotes in vitro) and in assay [2] (setting [3]) were 0.75 µM and 1.72 µM, respectively.
In the case of `COC(=O)Nc1ccc(-c2cnc3nc(-c4cc(NC(=O)c5ccco5)ccc4F)oc3c2)cc1` [Compound 414], the half-maximal effective concentration (EC50) was found to be 0.2 µM in assay [1] (axenic amastigotes in vitro) and 1.17 µM in assay [2] (setting [4]).
For the compound `CCc1cnc2nc(-c3cc(NC(=O)c4ccco4)ccc3Cl)oc2c1` [Example 419, N-(4-chloro-3-{6-ethyl-[1,3]oxazolo[4,5-b]pyridin-2-yl}phenyl)-furan-2-carboxamide], the EC50 in assay [1] (axenic amastigotes in vitro) was determined as 0.36 µM; in assay [2] (setting [4]) it was 2.46 µM.
Regarding `O=C(Nc1ccc(F)c(-c2nc3ncc(Br)cc3[nH]2)c1)N1CCOCC1` [Compound 365], the EC50 in assay [1] (axenic amastigotes in vitro) was 19.8 µM; in assay [2] (setting [3]) it was greater than 50 µM.
`CC(C)OC(=O)Nc1ccc(-c2cnc3nc(-c4cc(NC(=O)OC(C)C)ccc4Cl)[nH]c3c2)cc1` [Compound 337]: the EC50 came out at 0.119 µM in assay [1] (axenic amastigotes in vitro) and 0.295 µM in assay [2] (setting [3]).
For the compound `Cc1cnc2nc(-c3cc(NC(=O)c4ncco4)ccc3Cl)[nH]c2c1` [Compound 104], the EC50 was greater than 25 µM in assay [1] (axenic amastigotes in vitro) and greater than 50 µM in assay [2] (setting [3]).
On to `C=Cc1cnc2nc(-c3cc(NC(=O)c4ccco4)ccc3Cl)[nH]c2c1` [Example 74, N-(4-chloro-3-{6-ethenyl-1H-imidazo[4,5-b]pyridin-2-yl}phenyl)furan-2-carboxamide], for which the half-maximal effective concentration (EC50) in assay [1] (axenic amastigotes in vitro) is 0.45 µM; in assay [2] (setting [3]), 3.09 µM.
With `O=C(Nc1ccc(F)c(-c2nc3ncc(-c4ccccc4)cc3o2)c1)N1CCCC1` [Example 415, N-(4-fluoro-3-{6-phenyl-[1,3]oxazolo[4,5-b]pyridin-2-yl}phenyl)pyrrolidine-1-carboxamide], the EC50 in assay [1] (axenic amastigotes in vitro) came out at 0.4 µM; in assay [2] (setting [4]) it was 0.1 µM.
